Compound in one experiment: NS(=O)(=O)OC[C@@H]1C[C@@H](n2ccc3c(N[C@H]4CCc5ccccc54)ncnc32)C[C@@H]1O [MLN-4924]
The experiment is described as follows: surviving fraction relative to DMSO-only wells; higher = less growth inhibition. As to conditions: exposure time: 5 days. The essentials:
(§1)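 Lines were retained only if, across three screens, replicate Pearson r was >0.7 and median Z' was >0.3. Viability was measured as CellTiter-Glo luminescence and reported as surviving fraction relative to the median of DMSO-only wells. Readings followed 10 minutes at room temperature, after log-phase tumour cells seeded at 250–500 per well in 384-well plates had been exposed, from 24 hours after seeding, continuously for five days to inhibitors at 0.5, 1, 5, 10, 50, 100, 500 and 1000 nM.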

Compound in a further experiment: Oc1nc(-c2ccc(C(F)(F)F)cc2)nc2c1CSCC2 [XAV-939]
The experiment is described as above. As to conditions: exposure time: 5 days. The procedure, abridged:
as §1

The text below walks through data of the supplement of paper PMC6045584.

± gives the standard deviation of the averaged measurements.

Take MDAMB453 BREAST: the surviving fraction with MLN-4924 (0.5 nM) amounted to 1.1 ± 0.038; with MLN-4924 (1 nM) it was 1.08 ± 0.056; with MLN-4924 (5 nM), 1.07 ± 0.07; in the experiment with MLN-4924 (10 nM) it was 1.1 ± 0.066; with MLN-4924 (50 nM), 0.589 ± 0.019; with MLN-4924 (100 nM), 0.493 ± 0.034. The surviving fraction in the experiment with MLN-4924 (500 nM) is 0.363 ± 0.045; in the experiment with MLN-4924 (1000 nM), 0.304 ± 0.017; with XAV-939 (0.5 nM), 0.991 ± 0.053; in the experiment with XAV-939 (1 nM), 1.02 ± 0.034; in the experiment with XAV-939 (5 nM) it was 1.1 ± 0.088; with XAV-939 (10 nM), 1.08 ± 0.043. The surviving fraction with XAV-939 (50 nM) was 1.06 ± 0.04; with XAV-939 (100 nM), 1.12 ± 0.074; in the experiment with XAV-939 (500 nM) it was 1.02 ± 0.069; with XAV-939 (1000 nM) it was 0.961 ± 0.049.
On to MDAMB436 BREAST, for which the surviving fraction was 0.946 ± 0.13 in the experiment with MLN-4924 (0.5 nM); 0.962 ± 0.082 in the experiment with MLN-4924 (1 nM); 0.961 ± 0.097 with MLN-4924 (5 nM); 0.952 ± 0.13 with MLN-4924 (10 nM); 0.555 ± 0.053 with MLN-4924 (50 nM); 0.427 ± 0.037 with MLN-4924 (100 nM). The surviving fraction with MLN-4924 (500 nM) was determined as 0.272 ± 0.025; with MLN-4924 (1000 nM), 0.256 ± 0.016; with XAV-939 (0.5 nM), 0.957 ± 0.092; with XAV-939 (1 nM) it was 0.911 ± 0.088; with XAV-939 (5 nM), 0.923 ± 0.013; with XAV-939 (10 nM), 0.968 ± 0.079. The surviving fraction is 0.959 ± 0.075 with XAV-939 (50 nM), 0.958 ± 0.081 with XAV-939 (100 nM), 0.856 ± 0.049 in the experiment with XAV-939 (500 nM) and 0.82 ± 0.011 with XAV-939 (1000 nM).
Regarding SIHA CERVIX, the surviving fraction with MLN-4924 (0.5 nM) was found to be 1.04 ± 0.11; with MLN-4924 (1 nM) it was 1.07 ± 0.057; with MLN-4924 (5 nM), 1.16 ± 0.099; with MLN-4924 (10 nM) it was 1.22 ± 0.092; with MLN-4924 (50 nM) it was 0.81 ± 0.086; in the experiment with MLN-4924 (100 nM), 0.611 ± 0.077. In addition, the surviving fraction with MLN-4924 (500 nM) is 0.377 ± 0.021; with MLN-4924 (1000 nM) it was 0.312 ± 0.026; with XAV-939 (0.5 nM), 1.02 ± 0.045; with XAV-939 (1 nM) it was 1.05 ± 0.067; with XAV-939 (5 nM), 1.05 ± 0.084; with XAV-939 (10 nM), 1.16 ± 0.13. The surviving fraction in the experiment with XAV-939 (50 nM) came to 1.1 ± 0.044; with XAV-939 (100 nM) it was 1.19 ± 0.025; with XAV-939 (500 nM), 1 ± 0.063; with XAV-939 (1000 nM), 0.974 ± 0.046.
Take OS25HAL BONE: the surviving fraction in the experiment with MLN-4924 (0.5 nM) is 1.05 ± 0.029; in the experiment with MLN-4924 (1 nM) it was 1.05 ± 0.017; with MLN-4924 (5 nM), 1.11 ± 0.034; with MLN-4924 (10 nM) it was 0.982 ± 0.02; with MLN-4924 (50 nM) it was 0.773 ± 0.041; in the experiment with MLN-4924 (100 nM) it was 0.533 ± 0.06. Also, the surviving fraction with MLN-4924 (500 nM) was 0.181 ± 0.01; in the experiment with MLN-4924 (1000 nM), 0.102 ± 0.016; with XAV-939 (0.5 nM), 1.01 ± 0.026; with XAV-939 (1 nM), 1.04 ± 0.015; in the experiment with XAV-939 (5 nM) it was 1.03 ± 0.014; with XAV-939 (10 nM), 0.965 ± 0.034. Moreover, the surviving fraction turned out to be 1.01 ± 0.013 in the experiment with XAV-939 (50 nM), 1.03 ± 0.029 in the experiment with XAV-939 (100 nM), 0.872 ± 0.06 with XAV-939 (500 nM) and 0.893 ± 0.075 with XAV-939 (1000 nM).
Take BT20 BREAST: the surviving fraction with MLN-4924 (0.5 nM) was determined as 1.13 ± 0.042; with MLN-4924 (1 nM), 1.168 ± 0.0072; with MLN-4924 (5 nM), 1.13 ± 0.073; in the experiment with MLN-4924 (10 nM), 1.16 ± 0.1; in the experiment with MLN-4924 (50 nM) it was 1.2 ± 0.084; in the experiment with MLN-4924 (100 nM), 1.23 ± 0.18. Besides, the surviving fraction amounted to 0.989 ± 0.098 with MLN-4924 (500 nM); 0.645 ± 0.044 with MLN-4924 (1000 nM); 1.08 ± 0.19 with XAV-939 (0.5 nM); 1.06 ± 0.043 in the experiment with XAV-939 (1 nM); 1.05 ± 0.079 with XAV-939 (5 nM); 1.05 ± 0.051 with XAV-939 (10 nM). Also, the surviving fraction with XAV-939 (50 nM) came out at 1.08 ± 0.14; in the experiment with XAV-939 (100 nM) it was 1.14 ± 0.05; in the experiment with XAV-939 (500 nM) it was 1.26 ± 0.057; with XAV-939 (1000 nM), 1.23 ± 0.1.
As to HCT15 LARGE INTESTINE, the surviving fraction in the experiment with MLN-4924 (0.5 nM) stood at 1.06 ± 0.015; in the experiment with MLN-4924 (1 nM), 1.05 ± 0.095; in the experiment with MLN-4924 (5 nM), 1.07 ± 0.042; with MLN-4924 (10 nM) it was 1.08 ± 0.065; with MLN-4924 (50 nM), 0.966 ± 0.11; with MLN-4924 (100 nM), 0.906 ± 0.11. The surviving fraction with MLN-4924 (500 nM) was found to be 0.299 ± 0.065; in the experiment with MLN-4924 (1000 nM) it was 0.166 ± 0.041; in the experiment with XAV-939 (0.5 nM), 1.03 ± 0.058; in the experiment with XAV-939 (1 nM), 1.07 ± 0.031; in the experiment with XAV-939 (5 nM), 1.04 ± 0.034; in the experiment with XAV-939 (10 nM), 1.07 ± 0.059. Moreover, the surviving fraction in the experiment with XAV-939 (50 nM) is 0.932 ± 0.054; in the experiment with XAV-939 (100 nM) it was 1.03 ± 0.03; in the experiment with XAV-939 (500 nM), 0.961 ± 0.064; in the experiment with XAV-939 (1000 nM), 0.973 ± 0.04.
For A549 LUNG, the surviving fraction with MLN-4924 (0.5 nM) stood at 1.061 ± 0.0093; in the experiment with MLN-4924 (1 nM), 1.05 ± 0.034; with MLN-4924 (5 nM), 1.04 ± 0.023; with MLN-4924 (10 nM) it was 1 ± 0.034; in the experiment with MLN-4924 (50 nM), 1.11 ± 0.041; with MLN-4924 (100 nM), 1.1 ± 0.024. Further, the surviving fraction with MLN-4924 (500 nM) came to 0.781 ± 0.011; in the experiment with MLN-4924 (1000 nM), 0.417 ± 0.044; in the experiment with XAV-939 (0.5 nM) it was 0.967 ± 0.022; in the experiment with XAV-939 (1 nM) it was 0.985 ± 0.053; with XAV-939 (5 nM), 1.01 ± 0.035; with XAV-939 (10 nM), 1.02 ± 0.087. The surviving fraction came out at 1.07 ± 0.022 with XAV-939 (50 nM), 1.12 ± 0.013 in the experiment with XAV-939 (100 nM), 1.084 ± 0.0087 with XAV-939 (500 nM) and 1.14 ± 0.022 in the experiment with XAV-939 (1000 nM).
As to YAMATO SYNOVIAL, the surviving fraction was found to be 1.33 ± 0.091 with MLN-4924 (0.5 nM); 1.25 ± 0.019 with MLN-4924 (1 nM); 1.33 ± 0.085 in the experiment with MLN-4924 (5 nM); 1.31 ± 0.21 with MLN-4924 (10 nM); 1.21 ± 0.11 in the experiment with MLN-4924 (50 nM); 0.805 ± 0.058 in the experiment with MLN-4924 (100 nM). For the same test system, the surviving fraction in the experiment with MLN-4924 (500 nM) is 0.637 ± 0.041; in the experiment with MLN-4924 (1000 nM), 0.492 ± 0.045; in the experiment with XAV-939 (0.5 nM), 1.28 ± 0.22; with XAV-939 (1 nM) it was 1.22 ± 0.057; with XAV-939 (5 nM) it was 1.26 ± 0.095; with XAV-939 (10 nM), 1.34 ± 0.18. Besides, the surviving fraction with XAV-939 (50 nM) was found to be 1.3 ± 0.049; with XAV-939 (100 nM), 1.24 ± 0.053; in the experiment with XAV-939 (500 nM) it was 1 ± 0.095; with XAV-939 (1000 nM), 1.09 ± 0.037.
